In patent US20190327974A1, “SYNERGISTS FOR IMPROVED PESTICIDES” (priority 2017, published 2019):

Legend:
[1] = tested on: Myzus persicae (Green peach aphid); assay: Efficacy of chlorpyrifos-ethyl with boronic acids on aphids on broad bean leaves; assay type: in vivo; conditions: for Percentage of efficacy: boronic acid where present 0.2 mg/ml
Method: Experimentations was carried out in BIOtransfer, France under controlled conditions.
Bean leaves were treated with chlorpyrifos 480 EC (480 g a.i./1) at 4 application rates (360, 180, 90, 45 g a.i./ha), used alone or in combination with 3 boronic acid (BA) derivates (3.10, 5 and 3.7) each at 0.2 mg/ml. The treatment was performed with an agricultural nozzle (300 L per hectare) […]. A non-treated control condition were also evaluated in parallel. Statistical analysis of the data was then performed. When the leaves were totally dry, 3 leaves were sampled and infested with 3 wingless adults of M. persicae per leaf fragment.
• T+1 (DAT 1)—One day later the number of adults remaining on the leaves was counted. • T+3 (DAT 3)—3 days after treatment the aphid population was estimated; • T+7 (DAT 7)—7 days after treatment the development of aphid population was estimated.
3 bean leaves fragments per microbox*4 microbox per condition (1 condition is 1 formulation at 1 dose)*9 adult aphids per microbox*4 insecticides (3 chlorpyrifos derivates+clorpyrifos alone)*4 rates+2 controls (1 reference insecticide formulation at one dose and non-treated)*3 assessments timings (DAT+1, DAT+3 and DAT+7).

[2] = biological target: Lucilia cuprina αE7 carboxylesterase (LcαE7) variant Gly137Asp (Lucilia cuprina, UniProt Q25252, G137D); assay: Inhibition of Gly137Asp LcαE7, 4-nitrophenol butyrate hydrolysis; assay type: biochemical
Chain of Lucilia cuprina αE7 carboxylesterase (LcαE7) variant Gly137Asp (Q25252 entry or part of it G137D): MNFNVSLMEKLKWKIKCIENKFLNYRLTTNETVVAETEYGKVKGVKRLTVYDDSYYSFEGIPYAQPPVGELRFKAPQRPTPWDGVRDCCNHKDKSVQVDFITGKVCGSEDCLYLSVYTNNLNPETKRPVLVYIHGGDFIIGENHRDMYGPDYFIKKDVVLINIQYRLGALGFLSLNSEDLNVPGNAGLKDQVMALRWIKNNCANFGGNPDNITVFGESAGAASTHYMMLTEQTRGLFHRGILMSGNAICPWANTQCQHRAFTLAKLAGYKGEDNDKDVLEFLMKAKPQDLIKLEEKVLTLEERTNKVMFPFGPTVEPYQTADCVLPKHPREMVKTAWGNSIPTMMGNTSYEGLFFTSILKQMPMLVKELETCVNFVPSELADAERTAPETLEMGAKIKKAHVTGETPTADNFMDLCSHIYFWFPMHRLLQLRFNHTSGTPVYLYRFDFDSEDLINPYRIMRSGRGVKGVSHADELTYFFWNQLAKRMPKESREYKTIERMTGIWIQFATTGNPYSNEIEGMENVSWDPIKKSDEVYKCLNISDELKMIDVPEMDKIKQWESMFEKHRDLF
Description: The term “carboxyethylesterase” (CBE), refers to insect carboxylesterases from the alpha and beta and non-microsomal gene clusters, as defined in Oakeshott, Claudianos, Campbell, Newcomb and Russell, “Biochemical Genetic and Genomics of Insect Esterases”, pp 309-381, Chapter 10, Volume 5, 2005, Eds. Gilbert, Iatrou, Gill, published—Elsevier which is incorporated herein by reference. The αE7 CBE is an example of an alpha esterase, and is found in the sheep blowfly, Lucilia cuprina, with homologous genes being present in other insect pests. […]
His6-tagged proteins were expressed in BL21(DE3) E. coli (Invitrogen) at 26° C. for 18 hours. […] Protein concentration was determined by measuring the absorbance at 280 nm with an extinction coefficient calculated using the Protparam online server (Gasteiger, E. et al. Protein identification and analysis tools on the ExPASy server. Proteomics Protoc. Handb. 571-607 (2005). doi:10.1385/1-59259-890-0:571).
Inhibition of wild-type αE7 and the Gly137Asp αE7 variant was determined by a competition assay between the native-substrate analogue 4-nitrophenol butyrate (Sigma) and the boronic acid compounds. Initially, the Michalis constant (KM) with 4-nitrophenol butyrate was measured for both enzymes to determine an appropriate concentration of substrate for use in the competition assays. […]

[3] = Observation of the spray mixtures (flocculation); assay type: physicochemical; conditions: alone and in mixture with CPE in all doses
[4] = tested on: panel of CBEs from various pests; assay: Panel of insect CBEs as a whole; assay type: biochemical
Method: Assays were performed with 4-NPB as the substrate.

**Q.** With `CCOP(=S)(OCC)Oc1nc(Cl)c(Cl)cc1Cl` [CPE, Chlorpyrifos-ethyl] as the molecule, how does the Percentage of efficacy ([1]; CPE 0.7, 1 DAT) read?
**A.** Its Percentage of efficacy is 38%.

**Q.** And the Percentage of efficacy ([1]; CPE 0.7, 3 DAT)?
**A.** Its Percentage of efficacy is 20%.

**Q.** And the Percentage of efficacy ([1]; CPE 0.7, 7 DAT)?
**A.** Its Percentage of efficacy is 25%.

**Q.** And the Percentage of efficacy ([1]; CPE 1.4, 1 DAT)?
**A.** Its Percentage of efficacy is 41%.

**Q.** What about the Percentage of efficacy ([1]; CPE 1.4, 3 DAT) of the same molecule?
**A.** Its Percentage of efficacy is 27%.

**Q.** What about the Percentage of efficacy ([1]; CPE 1.4, 7 DAT) of the same molecule?
**A.** The Percentage of efficacy was 25%.

**Q.** What about the Percentage of efficacy ([1]; CPE 2.8, 1 DAT) of the same molecule?
**A.** Its Percentage of efficacy is 32%.

**Q.** What about the Percentage of efficacy ([1]; CPE 2.8, 3 DAT) of the same molecule?
**A.** Its Percentage of efficacy is 26%.

**Q.** And the Percentage of efficacy ([1]; CPE 2.8, 7 DAT)?
**A.** The Percentage of efficacy was 23%.

**Q.** And the Percentage of efficacy ([1]; CPE 5.6, 1 DAT)?
**A.** Its Percentage of efficacy is 36%.

**Q.** And the Percentage of efficacy ([1]; CPE 5.6, 3 DAT)?
**A.** Its Percentage of efficacy is 48%.

**Q.** And the Percentage of efficacy ([1]; CPE 5.6, 7 DAT)?
**A.** The Percentage of efficacy was 67%.

**Q.** What about the “Calibration results (efficacy)” value ([1]; CPE 1.4, 1 DAT) of the same molecule?
**A.** The value was 33%.

**Q.** And the “Calibration results (efficacy)” value ([1]; CPE 1.4, 3 DAT)?
**A.** Its value is 51%.

**Q.** What about the “Calibration results (efficacy)” value ([1]; CPE 1.4, 7 DAT) of the same molecule?
**A.** The value was 51%.

**Q.** What about the “Calibration results (efficacy)” value ([1]; CPE 2.8, 1 DAT) of the same molecule?
**A.** Its value is 31%.

**Q.** And the “Calibration results (efficacy)” value ([1]; CPE 2.8, 3 DAT)?
**A.** The value was 79%.

**Q.** What about the “Calibration results (efficacy)” value ([1]; CPE 2.8, 7 DAT) of the same molecule?
**A.** Its value is 99%.

**Q.** What about the “Calibration results (efficacy)” value ([1]; CPE 5.6, 1 DAT) of the same molecule?
**A.** Its value is 67%.

**Q.** And the “Calibration results (efficacy)” value ([1]; CPE 5.6, 3 DAT)?
**A.** The value was 98%.

**Q.** What about the “Calibration results (efficacy)” value ([1]; CPE 5.6, 7 DAT) of the same molecule?
**A.** The value was 100%.

**Q.** With `OB(O)c1cc(Br)cc(N2CCCC2)c1` [Compound 3] as the molecule, how does the “inhibition of Gly137Asp LcαE7” value [2] read?
**A.** The value was “poor inhibitor of Gly137Asp LcαE7”.

**Q.** What does the source list for `OB(O)c1ccc(OCc2ccccc2F)c(Cl)c1` [Compound 5, 3-Chloro-4(2′-fluorobenzyloxy) phenylboronic acid]?
**A.** flocculation [3]: Flocculation is observed; inhibition spectrum across CBEs [4]: efficiently inhibiting six different CBEs
